In article PMC12446476 (Nature Communications, 2025):
“And” between values parts separate entries of the source, which are not always exact repeats. Identical values can stand only once.

Key:
[1] = test system: S. aureus ATCC 29213; assay: S. aureus neutropenic murine thigh infection model; type: in vivo, mouse; conditions: S. aureus ATCC 29213, daily dose, 300 µg/mL ceftriaxone
Method: The S. aureus neutropenic murine thigh infection model was performed in accordance with the Guide for Care and Use of Laboratory Animals[75]. Animal rooms were maintained at a temperature range of 20–24 °C and humidity between 30% and 70%, with 12 h light/dark cycles. Female ICR mice (BioLASCO Taiwan Co., Ltd.) were rendered neutropenic via IP injection of cyclophosphamide four days before infection (150 mg/kg) and again one day before infection (100 mg/kg). Animals were anaesthetised with isoflurane (3–5%), then inoculated intramuscularly with S. aureus ATCC 29213 (~1 × 10^5 CFU/mouse). […] Animals were sacrificed via CO2 asphyxiation at either 2 h (baseline), 26 and/or 50 h post-infection. Thigh tissues were harvested and homogenised in 3 mL sterile PBS (pH 7.4). Bacterial burdens were determined by performing 10-fold serial dilutions and plating on nutrient agar plates.

[2] = test system: N. gonorrhoeae; assay: N. gonorrhoeae murine vaginal infection model, efficacy; type: in vivo, mouse
Method: The N. gonorrhoeae female mouse vaginal model[45] was performed in accordance with the Guide for Care and Use of Laboratory Animals[75]. Animal rooms were maintained at a temperature range of 20–24 °C and humidity between 30% and 70%, with 12 h light/dark cycles. Ovariectomized BALB/c female mice (5–6 weeks, BioLASCO Taiwan Co., Ltd.) were treated with estradiol (0.23 mg/mouse) two days before infection and on the day of infection. Ovariectomized mice were used to avoid staging mice before treating them with estradiol. Beginning two days prior to infection and maintained until the end of the study, animals were treated twice daily with streptomycin (1.2 mg/mouse) and vancomycin (0.6 mg/mouse) each via intraperitoneal (IP) injection and received trimethoprim sulfate in the drinking water (0.4 mg/mL) to control vaginal microflora. Animals were anesthetised with pentobarbital (80 mg/kg), the vagina was rinsed with 50 mM HEPES (pH 7.4), and then inoculated with N. gonorrhoeae in pre-warmed PBS (0.02 mL/mouse containing ~1 × 10^5 CFU).
Control groups received either a single IP injection of ceftriaxone or 5% dextrose (vehicle) twice daily. Animals were sacrificed via CO2 asphyxiation at either 2 h (baseline), 26 and/or 50 h post-infection. Vaginal lavage was performed twice with 200 µL GC broth containing 0.05% saponin to recover bacteria. Bacterial burden in the lavage fluids was determined by performing 10-fold serial dilutions and plating on chocolate agar plates. Four strains were assessed using the model; ATCC 700825 is naturally streptomycin-resistant, whereas AR Bank0179-15, AR Bank0181-17 and WHO X-07 are derivatives of AR Bank0179, AR Bank0181 and WHO X, respectively, that were engineered for streptomycin resistance for use in the model.

[3] = Data 4, N. gonorrhoeae WHO X-07, ovariectomized BALB/c, 5 mg/kg IP, QD, 24h, individual animals, 5 mg/kg
[4] = Data 4, N. gonorrhoeae WHO X-07, ovariectomized BALB/c, 333.33 mg/kg IP, TID, 24h, individual animals
[5] = Data 4, N. gonorrhoeae WHO X-07, ovariectomized BALB/c, 333.33 mg/kg IP, TID, 48h, individual animals, 333.33 mg/kg
[6] = N. gonorrhoeae AR Bank0179-15, vaginal lavage, individual mice, Ceftriaxone 0.5 mg/kg IP, QD, 24h
[7] = N. gonorrhoeae AR Bank0179-15, vaginal lavage, individual mice, Ceftriaxone 5 mg/kg IP, QD, 24h
[8] = N. gonorrhoeae AR Bank0179-15, vaginal lavage, individual mice, Ceftriaxone 5 mg/kg IP, QD, 48h
[9] = N. gonorrhoeae AR Bank0181-17, vaginal lavage, individual mice, Ceftriaxone 0.5 mg/kg IP, QD, 24h
[10] = N. gonorrhoeae AR Bank0181-17, vaginal lavage, individual mice, Ceftriaxone 5 mg/kg IP, QD, 24h
[11] = N. gonorrhoeae AR Bank0181-17, vaginal lavage, individual mice, Ceftriaxone 5 mg/kg IP, QD, 48h
[12] = N. gonorrhoeae ATCC 700825, vaginal lavage, individual mice, Ceftriaxone 1 mg/kg IP, QD, 24h
[13] = N. gonorrhoeae ATCC 700825, vaginal lavage, individual mice, Ceftriaxone 5 mg/kg IP, QD, 24h
[14] = N. gonorrhoeae ATCC 700825, vaginal lavage, individual mice, Ceftriaxone 5 mg/kg IP, QD, 48h

SMILES: CO/N=C(\C(=O)N[C@@H]1C(=O)N2C(C(=O)O)=C(CSc3nc(=O)c(=O)[nH]n3C)CS[C@H]12)c1csc(N)n1 [Ceftriaxone, reference compound]
- Mean Diff. 0h vs. treatment, log10 CFU ([1]; 24h): 1.71
- Mean Diff. 0h vs. treatment, log10 CFU ([1]; 48h): 2.684
- Mean Diff. 0h vs. treatment, log10 CFU ([2]; AR Bank0179-15, 0.5 µg/mL ceftriaxone, 24h): 3.018
- Mean Diff. 0h vs. treatment, log10 CFU ([2]; AR Bank0179-15, 5 µg/mL ceftriaxone, 24h): 3.186
- Mean Diff. 0h vs. treatment, log10 CFU ([2]; AR Bank0179-15, 5 µg/mL ceftriaxone, 48h): 3.09
- Mean Diff. 0h vs. treatment, log10 CFU ([2]; AR Bank0181-17, 0.5 µg/mL ceftriaxone, 24h): 0.924
- Mean Diff. 0h vs. treatment, log10 CFU ([2]; AR Bank0181-17, 5 µg/mL ceftriaxone, 24h): 3.56
- Mean Diff. 0h vs. treatment, log10 CFU ([2]; AR Bank0181-17, 5 µg/mL ceftriaxone, 48h): 3.56
- efficacy against ceftriaxone-susceptible strains ([2]; ATCC 700825, AR Bank0179-15, AR Bank0181-17): effective
- Mean Diff. 0h vs. treatment, log10 CFU ([2]; ATCC 700825, 1 µg/mL ceftriaxone, 24h): 2.882
- Mean Diff. 0h vs. treatment, log10 CFU ([2]; ATCC 700825, 5 µg/mL ceftriaxone, 24h): 3.022
- Mean Diff. 0h vs. treatment, log10 CFU ([2]; ATCC 700825, 5 µg/mL ceftriaxone, 48h): 3.082
- CFU/mL lavage fluid [2, 3]: 1450000 CFU/mL lavage fluid and 400000 CFU/mL lavage fluid and 1290000 CFU/mL lavage fluid and 480000 CFU/mL lavage fluid and 620000 CFU/mL lavage fluid
- Log10(CFU/mL lavage fluid) [2, 3]: 6.16 Log10(CFU/mL lavage fluid) and 5.60 Log10(CFU/mL lavage fluid) and 6.11 Log10(CFU/mL lavage fluid) and 5.68 Log10(CFU/mL lavage fluid) and 5.79 Log10(CFU/mL lavage fluid)
- CFU/mL lavage fluid [2, 4]: <5.00E+00 CFU/mL lavage fluid
- Log10(CFU/mL lavage fluid) [2, 4]: <0.70 Log10(CFU/mL lavage fluid)
- CFU/mL lavage fluid [2, 5]: 35 CFU/mL lavage fluid and <5.00E+00 CFU/mL lavage fluid
- Log10(CFU/mL lavage fluid) [2, 5]: 1.54 Log10(CFU/mL lavage fluid) and <0.70 Log10(CFU/mL lavage fluid)
- CFU/mL lavage fluid [2, 6]: 5 CFU/mL and <5 CFU/mL and 35 CFU/mL
- Log10(CFU/mL lavage fluid) [2, 6]: 0.7 Log10(CFU/mL lavage fluid) and <0.70 Log10(CFU/mL lavage fluid) and 1.54 Log10(CFU/mL lavage fluid)
- CFU/mL lavage fluid [2, 7]: <5 CFU/mL
- Log10(CFU/mL lavage fluid) [2, 7]: <0.70 Log10(CFU/mL lavage fluid)
- CFU/mL lavage fluid [2, 8]: 5 CFU/mL and <5 CFU/mL and 15 CFU/mL
- Log10(CFU/mL lavage fluid) [2, 8]: 0.7 Log10(CFU/mL lavage fluid) and <0.70 Log10(CFU/mL lavage fluid) and 1.18 Log10(CFU/mL lavage fluid)
- CFU/mL lavage fluid [2, 9]: 255 CFU/mL and 195 CFU/mL and 3900 CFU/mL and 37000 CFU/mL and 6600 CFU/mL
- Log10(CFU/mL lavage fluid) [2, 9]: 2.41 Log10(CFU/mL lavage fluid) and 2.29 Log10(CFU/mL lavage fluid) and 3.59 Log10(CFU/mL lavage fluid) and 4.57 Log10(CFU/mL lavage fluid) and 3.82 Log10(CFU/mL lavage fluid)
- CFU/mL lavage fluid [2, 10]: <5 CFU/mL
- Log10(CFU/mL lavage fluid) [2, 10]: <0.70 Log10(CFU/mL lavage fluid)
- CFU/mL lavage fluid [2, 11]: <5 CFU/mL
- Log10(CFU/mL lavage fluid) [2, 11]: <0.70 Log10(CFU/mL lavage fluid)
- CFU/mL lavage fluid [2, 12]: 50 CFU/mL and 5 CFU/mL and <5 CFU/mL
- Log10(CFU/mL lavage fluid) [2, 12]: 1.7 Log10(CFU/mL lavage fluid) and 0.7 Log10(CFU/mL lavage fluid) and <0.70 Log10(CFU/mL lavage fluid)
- CFU/mL lavage fluid [2, 13]: <5 CFU/mL and 10 CFU/mL
- Log10(CFU/mL lavage fluid) [2, 13]: <0.70 Log10(CFU/mL lavage fluid) and 1 Log10(CFU/mL lavage fluid)
- CFU/mL lavage fluid [2, 14]: <5 CFU/mL
- Log10(CFU/mL lavage fluid) [2, 14]: <0.70 Log10(CFU/mL lavage fluid)
- Mean Diff. 0h vs. treatment, log10 CFU ([2]; WHO X-07, 5 µg/mL ceftriaxone, 24h): -1.846
- Mean Diff. 0h vs. treatment, log10 CFU ([2]; WHO X-07, 1000 µg/mL ceftriaxone, 24h): 3.322
- Mean Diff. 0h vs. treatment, log10 CFU ([2]; WHO X-07, 1000 µg/mL ceftriaxone, 48h): 3.154
- efficacy against ceftriaxone-resistant strain WHO X-07 ([2]; at doses equivalent to those effective against susceptible strains): ineffective
- increase in log10CFU/mL at 24 h ([2]; dose with simulated fT > MIC of 2 h): 1.9 log10CFU/mL
- reduction in log10CFU/mL at 24 h ([2]; doses with simulated fT > MIC of 12 to 18 h): 2.0 log10CFU/mL
- reduction in log10CFU/mL at 24 h ([2]; doses with simulated fT > MIC of >24 h): 3.3 log10CFU/mL
- reduction in log10CFU/mL at 24 h ([2]; doses with simulated fT > MIC of ≥22 to 24 h): 2.9 log10CFU/mL
